Laboratory results published in patent publication US20140066410A1, “INHIBITORS OF BROMODOMAINS AS MODULATORS OF GENE EXPRESSION” (ICAHN SCHOOL OF MEDICINE AT MOUNT SINAI, priority 2011, published 2014).
Where two headings read alike, the source gives them in different places.

Assays:
p53 = experiment: p21 luciferase assay (p53 inhibition) in U20S cells upon doxorubicin; format: cell-based; conditions: for inhibition at 50 µM / % Inhibition (p53 inhibition, p21 luciferase activity): compounds at 50 μM, doxorubicin-treated U20S cells; for Ability to inhibit p53-dependent p21 luciferase activity / p21 expression (SAR, words): compared with lead / ortho-methyl analogs
Procedure: U20S Cells were transfected with p21 luciferase (1 μg) and renilla luciferase (100 ng) vectors in 6 well plate format using Fugene 6 (Roche). Briefly, total of 1.1 micrograms of vector was incubated with […] of Fugene 6 reagent for 30 min. After 3-4 hours of transfection, cell were treated with compounds for overnight, and then exposed to 300 nanogram of doxorubicin for next 24 hours. In these experiments, DMSO, transfected cells with empty vector and cell without doxorubicin were used as controls. DMSO concentration is maintained at 0.01%. Transfected cells with doxorubicin treatment were used as positive control. The luciferase activity was estimated by following the manufacturer's instruction (Promega) in a luminometer. […] The inhibitory activity (IC50) of a small molecule on p21 luciferase activity was obtained from the average of three biological replicates using PRISM software.

NF-κB = experiment: TNFα-induced NF-kB activation, luciferase in NF-kB response element HEK293 cells; format: cell-based; conditions: Homo sapiens; NF-κB-response element stabilized HEK293 cells; read-out: IC50, inhibition of TNFα-induced activation of NF-κB
Procedure: FIG. 5. […] A. NF-kB activation by TNFa (10 ng/mL). HEK 293 cells ([…]) in a 24-well plate were stabilized with NF-kB response element (NF-kB_RE) was treated with TNF. Twenty-four hours after the treatment, the cells were harvested and lysed, and luciferase activity was determined.
Dysregulation of macrophages and T cell functions trigger inflammatory responses contributing to IBD progression. Given its pro-inflammatory functions, NF-κB inhibition has anti-inflammatory effects, as shown by inhibition of IKK activity, which prevents phoshorylation and release of IκBα from NF-κB.

BRD4-1 = BRD4-1 (Homo sapiens, UniProt O60885); experiment: Bromodomain binding affinity (tryptophan fluorescence binding assay)
Procedure: (§1) Monitoring change of intrinsic tryptophan fluorescence of a protein induced by ligand binding can be used to determine ligand binding affinity (KD). This assay was used to assess ligand binding to the CBP BRD and ischemin binding to the BRDs from other transcription proteins as follows. The chemical ligands were prepared at 500-850 μM in the PBS buffer. Their serial dilutions by a factor of 1.5 in a 384-wells black plate were carried out using a Tecan EVO200 liquid handler down to a concentration of 0.5 nM. Protein was added to the compounds to a final concentration in each well of 5 μM. Tryptophan fluorescence of the protein was measured (with excitation set at 280 nm, emission at 350 nm) on a Tecan Safire2 reader. Inner filter correction was introduced to take into account the possible intrinsic fluorescence of the compound. […] KD was calculated based on the curve fitting.

CBP BRD = CBP BRD (Homo sapiens, UniProt Q92793); experiment: as above
Sequence of CBP BRD (Q92793 1085-1192 limits assumed): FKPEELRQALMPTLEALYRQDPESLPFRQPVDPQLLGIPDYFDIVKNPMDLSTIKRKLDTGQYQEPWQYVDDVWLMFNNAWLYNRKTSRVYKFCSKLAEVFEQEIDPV
Procedure: as §1

BRD4-2 = BRD4-2 (Homo sapiens, UniProt O60885); experiment: as above
Procedure: as §1

PCAF = target: T1, PCAF (Homo sapiens, UniProt Q92831); experiment: as above
T1 sequence (Q92831 723-827 limits assumed): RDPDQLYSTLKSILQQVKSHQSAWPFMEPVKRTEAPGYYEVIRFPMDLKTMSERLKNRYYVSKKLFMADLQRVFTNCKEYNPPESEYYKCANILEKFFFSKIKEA
Procedure: as §1

U20S cells = experiment: BRDU incorporation / cell cycle analysis; format: cell-based; conditions: for Prevention of doxorubicin-induced cell cycle arrest (decrease of BRDU incorporation): compound 50 μM, doxorubicin 5 μM, U20S cells
Procedure: BRDU incorporation assay for cell cycle evaluation was performed in 96 well plates using calorimetric based kit from Calbiochem (Cat# QiA58). Hundred microliter of 1×10^5/ml cells were plated in DMEM media (Mediatech) with 10% fetal bovine serum (FBS). After 12 hours cells were treated with compounds ischemin and MS 119 (50 μM) with or without doxorubicin treatment (5 μM). The controls were DMSO and untreated cells. BRDU was added for 24 hours treatment. After 24 hours cells were fixed and treated with anti-BRDU antibody. After washings, the wells were incubated with peroxidase. After final wash, the color was developed using TMB as substrate and the reaction was stopped with stop solution and optical density was estimated at 450 nm.
DNA damage induced by doxorubicin leads to p53 stimulated cellular responses including cell cycle arrest, damage repair, and apoptosis. To determine the effect of ischemin on dividing U20S cells, U20S cells were treated with 5-bromo-2-deoxyuridine (BRDU) and the incorporated BRDU during in DNA synthesis was measured using an ELISA assay.

melanoma cells = experiment: Melanoma cell proliferation in vitro; format: cell-based; conditions: FIG. 6, FIG. 7
melanocytes = experiment: Proliferation of normal melanocytes; format: cell-based; conditions: in vitro; FIG. 6
[1] = Table 4, read-out: BrD4-1 (μM), bromodomain binding
[2] = Table 4, read-out: CBP (μM), bromodomain binding
[3] = Table 4, read-out: BrD4-2 (μM), bromodomain binding
[4] = Table 4, read-out: PCAF (μM), bromodomain binding
[5] = Table 1, read-out: Binding Affinity, Kd BRD4-1
[6] = Table 1, read-out: Binding Affinity, Kd BRD4-2

## Cc1cc(C)c(S(=O)(=O)O)cc1/N=N/c1cc(C)c(O)c(C)c1C [MS146, 5-(2,3,5-trimethyl-4-hydroxyphenylazo)-2,4-dimethylbenzenesulfonic acid]
p53
  inhibition at 50 µM: 30.8%

## CCCc1cc(N=Nc2cc(S(=O)(=O)O)c(C)cc2C)ccc1O [MS126, 5-(4-hydroxy-3-propyl-phenylazo)-2,4-dimethylbenzenesulfonic acid]
p53
  inhibition at 50 µM: 93.5%

## Cc1cc(/N=N/c2ccc(S(=O)(=O)O)cc2)cc(C)c1O [MS451]
p53
  Ability to inhibit p53-dependent p21 luciferase activity / p21 expression (SAR, words): marked increase
  inhibition at 50 µM: 87.4%

## Cc1cc(/N=N/c2cc(S(=O)(=O)O)c(C)cc2C)c(C)cc1O [MS118]
p53
  inhibition at 50 µM: 49.7%

## CC(C)c1cc(N=Nc2ccc(S(=O)(=O)O)cc2)cc(C(C)C)c1O [MS105, 4-(4-hydroxy-3,5-diisopropyl-phenylazo)-benzenesulfonic acid]
p53
  Ability to inhibit p53-dependent p21 luciferase activity / p21 expression (SAR, words): reduced activity
  inhibition at 50 µM: 26.4%

## Cc1cc(O)cc(C)c1/N=N/c1cc(Cl)c(O)c(S(=O)(=O)O)c1 [MS153]
p53
  inhibition at 50 µM: 39%

## O=C(O)c1cc(/N=N/c2ccc(S(=O)(=O)Nc3ccccn3)cc2)ccc1O [Sulfasalazine (MS0123028), Sulfasalazine, reference compound]
NF-κB
  IC50: 0.22 µM
BRD4-1; [1]
  Kd: 54 µM
BRD4-1; Table 5, read-out: BrD4-1
  Kd: 54 µM
CBP BRD; [2]
  Kd: 82 µM
CBP BRD; Table 5, read-out: CBP
  Kd: 82 µM
BRD4-2; [3]
  Kd: 54 µM
PCAF; [4]
  Kd: 88 µM
PCAF; Table 5, read-out: PCAF
  Kd: 88 µM

## Cc1cc(C)c(S(=O)(=O)O)cc1/N=N/c1ccc(O)c(Cl)c1 [MS131, 5-(3-chloro-4-hydroxyphenylazo)-2,4-dimethylbenzenesulfonic acid]
p53
  inhibition at 50 µM: 49.7%

## Cc1cc(NNc2ccc(S(=O)(=O)NCc3ccc(C(F)(F)F)cc3)cc2)c(N)cc1O [MS0129433]
NF-κB
  IC50: 0.057 µM
BRD4-1; Table 5, read-out: BrD4-1
  Kd: 4.5 µM
CBP BRD; Table 5, read-out: CBP
  Kd: > 100 µM
BRD4-2; Table 5, read-out: BrD4-2
  Kd: 21 µM
PCAF; Table 5, read-out: PCAF
  Kd: > 100 µM

## Cc1cc(C#Cc2ccc(S(=O)(=O)Nc3ccccn3)cc2)cc(C)c1O [CM0000254]
BRD4-1; [5]
  Kd: < 1 µM
BRD4-2; [6]
  Kd: 1.6 µM

## Cc1cc(N=Nc2ccc(S(=O)(=O)O)cc2)cc(C(C)(C)C)c1O [MS111, 4-(4-hydroxy-3-t-butyl-5-methyl-phenylazo)-benzenesulfonic acid]
p53
  Ability to inhibit p53-dependent p21 luciferase activity / p21 expression (SAR, words): reduced activity
  inhibition at 50 µM: 22.8%

## CCc1cc(/N=N/c2ccc(S(=O)(=O)O)cc2)ccc1O [MS113, 4-(4-hydroxy-3-ethyl-phenylazo)-benzenesulfonic acid]
p53
  Ability to inhibit p53-dependent p21 luciferase activity / p21 expression (SAR, words): reduced activity
  inhibition at 50 µM: 25.7%

## Cc1cc(O)cc(C)c1/N=N/c1ccc(S(=O)(=O)O)cc1 [MS100, 4-(4-hydroxy-2,6-dimethyl-phenylazo)-benzenesulfonic acid]
p53
  inhibition at 50 µM: 36.4%

## Cc1cc(/N=N/c2ccc(S(=O)(=O)Nc3ccccn3)cc2)cc(C)c1O [MS0129435]
BRD4-1; [1]
  Kd: 1.3 µM
CBP BRD; [2]
  Kd: > 100 µM
BRD4-2; [3]
  Kd: 2.4 µM
PCAF; [4]
  Kd: 4.5 µM

## Cc1cc(C)c(S(=O)(=O)O)cc1/N=N/c1c(C)cc(O)cc1C [MS119, 5-(2,6-dimethyl-4-hydroxyphenylazo)-2,4-dimethylbenzenesulfonic acid]
U20S cells
  Prevention of doxorubicin-induced cell cycle arrest (decrease of BRDU incorporation): prevents a doxorubicin-induced decrease of BRDU incorporation
U20S cells; listed as MS 119
  Prevention of doxorubicin-induced cell cycle arrest (decrease of BRDU incorporation): almost completely prevented
p53; U20S cells, FIG. 1A
  Inhibition of p21 luciferase activity: Dose-dependent inhibition
p53
  inhibition at 50 µM: 54%

## Cc1cc(/N=N/c2ccc(S(=O)(=O)O)cc2)ccc1O [MS450]
p53
  Ability to inhibit p53-dependent p21 luciferase activity / p21 expression (SAR, words): marked increase
  inhibition at 50 µM: 85.6%

## Cc1cc(/N=N/c2ccc(S(=O)(=O)O)cc2)c(C)c(C)c1O [MS103, 4-(4-hydroxy-2,3,5-trimethyl-phenylazo)-benzenesulfonic acid]
p53
  inhibition at 50 µM: 38.9%

## 5-(4-hydroxy-3,5-isopropyl-phenylazo)-2,4-dimethylbenzenesulfonic acid [MS128]
p53
  % Inhibition (p53 inhibition, p21 luciferase activity): 47.2%

## Cc1cc(C)c(S(=O)(=O)O)cc1N=Nc1cc(C)c(O)c(C(C)C)c1 [MS129, 5-(4-hydroxy-3-isopropyl-5-methyl-phenylazo)-2,4-dimethylbenzenesulfonic acid]
p53
  inhibition at 50 µM: 44.6%

## Cc1cc(/N=N/c2ccc(S(=O)(=O)O)cc2)c(C)cc1O [MS101, 4-(4-hydroxy-2,5-dimethyl-phenylazo)-benzenesulfonic acid]
p53
  Ability to inhibit p53-dependent p21 luciferase activity / p21 expression (SAR, words): marked increase
  inhibition at 50 µM: 82.9%

## CCC(=O)c1cc(N=Nc2cc(S(=O)(=O)O)c(C)cc2C)ccc1O [MS127, 5-(4-hydroxyphenylazo-3-(1-propanone))-2,4-dimethylbenzenesulfonic acid]
p53
  % Inhibition (p53 inhibition, p21 luciferase activity): 86.8%

## Cc1cc(/N=N/c2ccc(S(=O)(=O)Nc3ccccn3)cc2)c(N)cc1O [MS0129436]
Melanoma cells
  Inhibition of melanoma cell proliferation: inhibits proliferation
NF-κB
  IC50: 0.057 µM
melanocytes
  Effect on normal melanocytes: no effect
CBP BRD; [2]
  Kd: 14 µM
CBP BRD; Table 5, read-out: CBP
  Kd: 14 µM
PCAF; [4]
  Kd: 6.8 µM
PCAF; Table 5, read-out: PCAF
  Kd: 8.6 µM

## Cc1cc(O)c(N)cc1/N=N/c1cc(S(=O)(=O)O)c(C)cc1C [MS135]
p53
  inhibition at 50 µM: 54.8%

## COc1cccc2c1C(=O)c1c(O)c3c(c(O)c1C2=O)C[C@@](O)(C(=O)CO)C[C@@H]3O[C@H]1C[C@H](N)[C@H](O)[C@H](C)O1 [doxorubicin, reference compound]
U20S cells; doxorubicin treatment of U20S cells
  Decrease of BRDU incorporation: 45%

## Cc1cc(C)c(S(=O)(=O)O)cc1/N=N/c1cc(C)c(O)c(C)c1 [MS109, 5-(3,5-dimethyl-4-hydroxyphenylazo)-2,4-dimethylbenzenesulfonic acid]
p53
  inhibition at 50 µM: 60.1%

## Cc1cc(/C=C/c2ccc(S(=O)(=O)Nc3ccccn3)cc2)c(NC(=O)OC(C)(C)C)cc1O [CM0000278]
BRD4-1; [5]
  Kd: 1.5 µM
BRD4-2; [6]
  Kd: < 1 µM

## 5-(4-hydroxy-3-methyl-5-propene-phenylazo)-2,4-methylbenzenesulfonic acid [MS130]
p53
  % Inhibition (p53 inhibition, p21 luciferase activity): 40.4%

## Cc1cc(/C=C/c2ccc(S(=O)(=O)Nc3ccccn3)cc2)c(N)cc1O [CM0000279]
Melanoma cells
  Inhibition of melanoma cell proliferation: capable of inhibiting melanoma cell proliferation
BRD4-1; [5]
  Kd: 2.1 µM
BRD4-1; [1]
  Kd: 2 µM
BRD4-2; [6]
  Kd: < 1 µM
BRD4-2; [3]
  Kd: < 1 µM

## CCc1cc(/N=N/c2cc(S(=O)(=O)O)c(C)cc2C)ccc1O [MS124, 5-(3-ethyl-4-hydroxyphenylazo)-2,4-dimethylbenzenesulfonic acid]
p53
  inhibition at 50 µM: 25%

## Cc1cc(/C=C/c2ccc(S(=O)(=O)Nc3ccccn3)cc2)cc(C)c1O [CM0000255]
Melanoma cells
  Inhibition of melanoma cell proliferation: capable of inhibiting melanoma cell proliferation
BRD4-1; [5]
  Kd: < 1 µM
BRD4-1; [1]
  Kd: < 1 µM
CBP BRD; Table 1, read-out: Binding Affinity, Kd CBP
  Kd: 32.8 µM
CBP BRD; [2]
  Kd: 33 µM
BRD4-2; [6]
  Kd: < 1 µM
BRD4-2; [3]
  Kd: < 1 µM
PCAF; Table 1, read-out: Binding Affinity, Kd PCAF
  Kd: < 1 µM
PCAF; [4]
  Kd: < 1 µM
